In brackets after ≈: the same amount, converted by molar mass.
Columns and labels:
Enterobacter cloacae = experiment: In vitro antibacterial activity against Enterobacter cloacae 1321E; assay type: functional
Escherichia coli [1] = experiment: In vitro antibacterial activity against Escherichia coli 078; assay type: functional
Escherichia coli [2] = experiment: In vitro antibacterial activity against Escherichia coli 1507E; assay type: functional
Klebsiella aerogenes = experiment: In vitro antibacterial activity against Klebsiella aerogenes 1522E; assay type: functional
Pseudomonas aeruginosa [3] = experiment: In vitro antibacterial activity against Pseudomonas aeruginosa 1771M; assay type: functional
Salmonella typhimurium = experiment: In vitro antibacterial activity against Salmonella Typhimurium; assay type: functional, Salmonella enterica subsp. enterica serovar Typhimurium; settings: Salmonella enterica
Staphylococcus aureus [4] = experiment: In vitro antibacterial activity against Staphylococcus aureus 285; assay type: functional
Staphylococcus aureus [5] = experiment: In vitro antibacterial activity against Staphylococcus aureus 503; assay type: functional
Staphylococcus aureus [6] = experiment: In vitro antibacterial activity against Staphylococcus aureus SG 511; assay type: functional
Streptococcus pyogenes = experiment: In vitro antibacterial activity against Streptococcus pyogenes 308A; assay type: functional
Sus scrofa = species on record: Sus scrofa; experiment: DHP-I stability of compound relative to t1/2 of hydrolysis to meropenem; assay type: functional; set-up: scale not given: the % may be the effect or the level left
Pseudomonas aeruginosa [7] = experiment: In vitro antibacterial activity against Pseudomonas aeruginosa 9027; assay type: functional
[8] = Half life of compound after iv administration of 20 mg/kg dose in rat; assay type: ADME, organism-based; set-up: dose 20 mg/kg, route intravenous; settings: in vivo
[9] = Clearance of compound after iv administration of 20 mg/kg dose in rat; assay type: ADME, organism-based; set-up: dose 20 mg/kg, route intravenous; settings: in vivo
[10] = Area under curve of compound after iv administration of 20 mg/kg dose in rat; assay type: ADME, organism-based; set-up: dose 20 mg/kg, route intravenous; settings: in vivo

Row | Compound | MIC (Enterobacter cloacae) [µg/mL] | MIC (Escherichia coli [1]) [µg/mL] | MIC (Escherichia coli [2]) [µg/mL] | MIC (Klebsiella aerogenes) [µg/mL] | MIC (Pseudomonas aeruginosa [3]) [µg/mL] | MIC (Salmonella typhimurium) [µg/mL] | MIC (Staphylococcus aureus [4]) [µg/mL] | MIC (Staphylococcus aureus [5]) [µg/mL] | MIC (Staphylococcus aureus [6]) [µg/mL] | MIC (Streptococcus pyogenes) [µg/mL] | MIC (Pseudomonas aeruginosa [7]) [µg/mL] | half-life [8] [min] | clearance [9] [mL/min/kg] | AUC [10] [ng·h/mL] | Stability (Sus scrofa) [%]
1 | Cc1ccnc(SC[C@@H]2C[C@H](SC3=C(C(=O)O)N4C(=O)[C@H]([C@@H](C)O)[C@H]4[C@H]3C)CN2)n1 | 0.098 (≈ 0.217 µM) | 0.049 (≈ 0.109 µM) | 0.098 (≈ 0.217 µM) | 0.098 (≈ 0.217 µM) | 6.25 (≈ 13.9 µM) | 0.098 (≈ 0.217 µM) | 0.098 (≈ 0.217 µM) | 0.025 (≈ 0.0555 µM) | 0.049 (≈ 0.109 µM) | 0.007 (≈ 0.0155 µM) | 25 (≈ 55.5 µM) | – | – | – | 122
2 | C[C@@H](O)[C@H]1C(=O)N2C(C(=O)O)=C(SCCNC=N)C[C@H]12.O [IMIPENEM] | – | – | – | – | – | – | – | – | – | – | – | 3.46 | – | – | –
3 | CNC(=O)c1cccnc1SC[C@@H]1C[C@H](SC2=C(C(=O)O)N3C(=O)[C@H]([C@@H](C)O)[C@H]3[C@H]2C)CN1 | 0.049 (≈ 0.0995 µM) | 0.049 (≈ 0.0995 µM) | 0.098 (≈ 0.199 µM) | 0.098 (≈ 0.199 µM) | 1.56 (≈ 3.17 µM) | 0.098 (≈ 0.199 µM) | < 0.049 | 0.025 (≈ 0.0507 µM) | < 0.049 | < 0.002 | 12.5 (≈ 25.4 µM) | – | – | – | –
4 | C[C@@H](O)[C@H]1C(=O)N2C(C(=O)O)=C(S[C@@H]3CN[C@H](CSc4nncn4C)C3)[C@H](C)[C@H]12 | 0.049 (≈ 0.111 µM) | 0.025 (≈ 0.0569 µM) | 0.049 (≈ 0.111 µM) | 0.098 (≈ 0.223 µM) | 0.195 (≈ 0.444 µM) | 0.098 (≈ 0.223 µM) | 0.098 (≈ 0.223 µM) | 0.025 (≈ 0.0569 µM) | 0.049 (≈ 0.111 µM) | 0.013 (≈ 0.0296 µM) | 1.56 (≈ 3.56 µM) | – | – | – | 93
5 | C[C@@H](O)[C@H]1C(=O)N2C(C(=O)O)=C(S[C@@H]3CN[C@H](CSc4ncccn4)C3)[C@H](C)[C@H]12 | 0.049 (≈ 0.112 µM) | 0.049 (≈ 0.112 µM) | 0.049 (≈ 0.112 µM) | 0.098 (≈ 0.224 µM) | 0.391 (≈ 0.896 µM) | 0.098 (≈ 0.224 µM) | 0.049 (≈ 0.112 µM) | 0.025 (≈ 0.0573 µM) | 0.025 (≈ 0.0573 µM) | < 0.002 | 3.12 (≈ 7.16 µM) | – | – | – | 89
6 | C[C@@H](O)[C@H]1C(=O)N2C(C(=O)O)=C(S[C@@H]3CN[C@H](CSc4ncccc4O)C3)[C@H](C)[C@H]12 | 0.098 (≈ 0.217 µM) | 0.195 (≈ 0.432 µM) | 0.195 (≈ 0.432 µM) | 0.195 (≈ 0.432 µM) | 6.25 (≈ 13.8 µM) | 0.195 (≈ 0.432 µM) | 0.049 (≈ 0.109 µM) | 0.195 (≈ 0.432 µM) | 0.025 (≈ 0.0554 µM) | < 0.002 | 25 (≈ 55.4 µM) | – | – | – | –
7 | C[C@@H](O)[C@H]1C(=O)N2C(C(=O)O)=C(S[C@@H]3CN[C@H](C(=O)N(C)C)C3)[C@H](C)[C@H]12 [MEROPENEM] | 0.025 (≈ 0.0652 µM) | 0.025 (≈ 0.0652 µM) | 0.025 (≈ 0.0652 µM) | 0.049 (≈ 0.128 µM) | 0.049 (≈ 0.128 µM) | 0.049 (≈ 0.128 µM) | 0.195 (≈ 0.509 µM) | 0.098 (≈ 0.256 µM) | 0.195 (≈ 0.509 µM) | 0.013 (≈ 0.0339 µM) | 0.195 (≈ 0.509 µM) | – | – | – | 100

The remaining compounds from weak to strong by MIC (Enterobacter cloacae), led by results:

Row | MIC (Enterobacter cloacae) [µg/mL] | MIC (Escherichia coli [1]) [µg/mL] | MIC (Escherichia coli [2]) [µg/mL] | MIC (Klebsiella aerogenes) [µg/mL] | MIC (Pseudomonas aeruginosa [3]) [µg/mL] | MIC (Salmonella typhimurium) [µg/mL] | MIC (Staphylococcus aureus [4]) [µg/mL] | MIC (Staphylococcus aureus [5]) [µg/mL] | MIC (Staphylococcus aureus [6]) [µg/mL] | MIC (Streptococcus pyogenes) [µg/mL] | MIC (Pseudomonas aeruginosa [7]) [µg/mL] | half-life [8] [min] | clearance [9] [mL/min/kg] | AUC [10] [ng·h/mL] | Compound | Stability (Sus scrofa) [%]
8 | 0.025 (≈ 0.0567 µM) | 0.025 (≈ 0.0567 µM) | 0.025 (≈ 0.0567 µM) | 0.025 (≈ 0.0567 µM) | 0.195 (≈ 0.443 µM) | 0.025 (≈ 0.0567 µM) | 0.049 (≈ 0.111 µM) | 0.025 (≈ 0.0567 µM) | 0.025 (≈ 0.0567 µM) | 0.004 (≈ 0.00908 µM) | 0.781 (≈ 1.77 µM) | 11 | – | – | C[C@@H](O)[C@H]1C(=O)N2C(C(=O)O)=C(S[C@@H]3CN[C@H](CSc4nnnn4C)C3)[C@H](C)[C@H]12 | 88
9 | 0.025 (≈ 0.0495 µM) | 0.025 (≈ 0.0495 µM) | 0.025 (≈ 0.0495 µM) | 0.049 (≈ 0.0971 µM) | 0.781 (≈ 1.55 µM) | 0.049 (≈ 0.0971 µM) | 0.098 (≈ 0.194 µM) | 0.025 (≈ 0.0495 µM) | 0.098 (≈ 0.194 µM) | 0.007 (≈ 0.0139 µM) | 50 (≈ 99.1 µM) | – | – | – | C[C@@H](O)[C@H]1C(=O)N2C(C(=O)O)=C(S[C@@H]3CN[C@H](CSc4nccc(C(F)(F)F)n4)C3)[C@H](C)[C@H]12 | –
10 | 0.013 (≈ 0.0294 µM) | 0.013 (≈ 0.0294 µM) | 0.013 (≈ 0.0294 µM) | 0.025 (≈ 0.0565 µM) | 0.195 (≈ 0.441 µM) | 0.025 (≈ 0.0565 µM) | 0.049 (≈ 0.111 µM) | 0.013 (≈ 0.0294 µM) | 0.025 (≈ 0.0565 µM) | 0.007 (≈ 0.0158 µM) | 1.56 (≈ 3.53 µM) | 43.1 | 10.2 | 36900 | C[C@@H](O)[C@H]1C(=O)N2C(C(=O)O)=C(S[C@@H]3CN[C@H](CSc4cnns4)C3)[C@H](C)[C@H]12 | 167
11 | 0.013 (≈ 0.0285 µM) | 0.007 (≈ 0.0153 µM) | 0.007 (≈ 0.0153 µM) | 0.025 (≈ 0.0548 µM) | 0.195 (≈ 0.427 µM) | 0.025 (≈ 0.0548 µM) | 0.025 (≈ 0.0548 µM) | 0.007 (≈ 0.0153 µM) | 0.025 (≈ 0.0548 µM) | 0.004 (≈ 0.00876 µM) | 3.12 (≈ 6.84 µM) | – | – | – | Cc1nnc(SC[C@@H]2C[C@H](SC3=C(C(=O)O)N4C(=O)[C@H]([C@@H](C)O)[C@H]4[C@H]3C)CN2)s1 | 108

From ChEMBL document CHEMBL1133947, “Synthesis and biological properties of new 1beta-methylcarbapenems containing heteroaromatic thioether moiety” (Bioorg Med Chem Lett, 2001)
